Assay [1] concerns the target T1, human estrogen receptor beta (ERβ) (Homo sapiens, UniProt Q92731).
T1 construct: expressed in transfected cells; host or cells: CHO K1
Kind of assay: CHO steroid receptor reporter assay, ERβ / rat oxytocin-Luc. It counts as cell-based. The conditions noted are these: ERß. An excerpt:
(§1) For monitoring both human steroid receptor agonistic as well as antagonistic activity of compounds, Chinese hamster ovary (CHO) K1 cells stably co-transfected with the specific human steroid receptor and its respective reporter construct were used (as previously described).
(§2) For human glucocorticoid receptor (GR)-specific activity CHO-GR B4.8 cells containing both recombinant human GR as well as a reporter construct consisting of the mouse mammary tumor virus (MMTV) promotor and the luciferase reporter gene, were used. Compound was incubated alone (in the agonistic setup) or with 50 nM dexamethasone (in the antagonistic setup) overnight. Hereafter, 200 µl medium was removed and 50 µl luciferine substrate solution from the LucLite luminescence kit (Packard, Meriden, USA) was added. […] Percentage maximal antagonistic efficacy was related to the maximal antagonistic efficacy of reference GR antagonist Org 34116. Similar procedures were followed for the other human steroid receptor assays (for more detailed information see Supportive Information) (SI text).
(§3) Similar procedures were followed for the other human steroid receptor assays containing combinations of human progesterone receptor B (PR-B) and MMTV-Luc, human androgen receptor (AR) and MMTV-Luc, human chimeric glucocorticoid-mineralocorticoid receptor (GGM, Trapp et al. (1994), Neuron 13: 1457) and MMTV-Luc, human estrogen receptor alpha (ERα) and rat oxytocin-Luc (45), and human estrogen receptor beta (ERβ) and rat oxytocin-Luc, respectively.
(Reporter assays use an easily measured gene product as a stand-in for the process of interest.)

For assay [2], the target named is T2, recombinant human glucocorticoid receptor (GR) (Homo sapiens, UniProt P04150).
T2 construct: purchased Panvera P2816
T2 sequence (P04150 whole entry): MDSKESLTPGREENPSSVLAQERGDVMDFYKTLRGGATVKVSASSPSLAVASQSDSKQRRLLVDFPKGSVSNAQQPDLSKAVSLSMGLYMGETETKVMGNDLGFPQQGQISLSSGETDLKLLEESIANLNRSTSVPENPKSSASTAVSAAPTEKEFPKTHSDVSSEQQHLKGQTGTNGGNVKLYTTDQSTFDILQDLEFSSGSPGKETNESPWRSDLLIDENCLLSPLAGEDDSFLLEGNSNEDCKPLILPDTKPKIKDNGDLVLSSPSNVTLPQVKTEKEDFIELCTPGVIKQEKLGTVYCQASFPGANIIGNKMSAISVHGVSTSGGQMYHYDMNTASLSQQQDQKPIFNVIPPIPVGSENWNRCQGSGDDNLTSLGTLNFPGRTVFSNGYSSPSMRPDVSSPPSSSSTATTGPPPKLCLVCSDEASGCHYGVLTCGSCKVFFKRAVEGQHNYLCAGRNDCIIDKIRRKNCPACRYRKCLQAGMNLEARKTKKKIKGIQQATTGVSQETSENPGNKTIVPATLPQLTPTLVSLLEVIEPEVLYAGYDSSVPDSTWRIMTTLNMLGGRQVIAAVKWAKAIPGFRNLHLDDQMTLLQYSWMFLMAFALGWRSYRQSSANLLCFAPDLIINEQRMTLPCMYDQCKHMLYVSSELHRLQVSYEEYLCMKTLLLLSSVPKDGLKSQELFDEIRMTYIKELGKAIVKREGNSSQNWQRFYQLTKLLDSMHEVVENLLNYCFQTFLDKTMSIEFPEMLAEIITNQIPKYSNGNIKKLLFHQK
Kind of assay: Glucocorticoid receptor fluorescence polarisation competitor binding assay. The conditions noted are these: fluorescence polarization competitor binding; mean (±SD); read-out: Ki, competitive binding. From the text:
(for more detailed information see Supportive Information) (SI text).
(In general: In fluorescence polarisation assays a small probe gives low polarisation when free and higher when bound to something large.)

Assay [3] deals with T3, human progesterone receptor B (PR-B) (Homo sapiens, UniProt P06401).
T3 construct: expressed in transfected cells; host or cells: CHO K1
T3 sequence (P06401 1-933): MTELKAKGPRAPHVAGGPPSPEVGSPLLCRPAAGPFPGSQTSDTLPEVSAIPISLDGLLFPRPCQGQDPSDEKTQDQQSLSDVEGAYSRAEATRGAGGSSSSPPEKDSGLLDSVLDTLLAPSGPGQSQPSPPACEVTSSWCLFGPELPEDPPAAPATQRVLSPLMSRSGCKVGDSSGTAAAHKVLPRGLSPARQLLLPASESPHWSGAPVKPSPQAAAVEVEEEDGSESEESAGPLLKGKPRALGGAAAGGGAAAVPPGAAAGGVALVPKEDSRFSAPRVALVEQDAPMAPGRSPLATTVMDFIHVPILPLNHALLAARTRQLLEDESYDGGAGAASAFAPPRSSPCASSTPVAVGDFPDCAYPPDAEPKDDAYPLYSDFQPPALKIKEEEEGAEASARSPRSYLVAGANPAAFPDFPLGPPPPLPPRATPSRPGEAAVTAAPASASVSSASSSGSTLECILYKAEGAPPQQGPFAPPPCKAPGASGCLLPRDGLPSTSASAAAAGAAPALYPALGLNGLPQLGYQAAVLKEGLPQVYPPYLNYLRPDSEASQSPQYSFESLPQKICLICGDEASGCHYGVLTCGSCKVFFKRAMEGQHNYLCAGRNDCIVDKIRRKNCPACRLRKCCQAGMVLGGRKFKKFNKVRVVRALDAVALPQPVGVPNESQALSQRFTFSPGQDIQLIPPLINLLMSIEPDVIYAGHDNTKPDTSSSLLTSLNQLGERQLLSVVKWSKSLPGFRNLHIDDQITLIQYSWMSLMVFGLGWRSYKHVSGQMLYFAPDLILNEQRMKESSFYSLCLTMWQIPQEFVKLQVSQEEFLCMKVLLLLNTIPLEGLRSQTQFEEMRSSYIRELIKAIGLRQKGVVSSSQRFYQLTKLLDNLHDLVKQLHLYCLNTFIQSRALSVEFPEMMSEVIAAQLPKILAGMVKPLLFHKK
Kind of assay: CHO steroid receptor reporter assay, PR-B / MMTV-Luc. The class given is cell-based.
From the text: as §1, §2, §3

Assay [4] relates to endometrium in estrogen-primed immature rabbits. Kind of assay: anti-McPhail test (antagonistic, anti-progestational activity). The class given is in vivo, rabbit. As to conditions: 0-4 scale; 7 days with progesterone; RU486 4 mg/kg/day, Org 214007-0 0.5 mg/kg/day oral; n=2. The procedure:
For the anti-McPhail test, the estrogen-primed rabbits were subsequently treated for 7 days with inducer progesterone (0.25 mg/kg/day s.c.) in combination with an oral treatment of either placebo, reference RU486 (4 mg/kg/day) or Org 214007-0 (0.5 mg/kg/day). The uterus preparation and evaluation of the endometrium was performed as described above.
For the antagonistic test, after oestrogen priming, rabbits were treated for 7 days with progesterone and placebo, reference RU486 or Org 214007-0. One day after the last treatment the uterus was dissected and endometrial development was scored on a 0-4 scale. […] After treatment with Org 214007-0 no reduction of the endometrial transformation was observed (score 3.31), indicative for no anti-progestagenic activity

The test system is the same in assay [5]. Kind of assay: McPhail test (agonistic, progestational activity). The class given is in vivo, rabbit. As to conditions: 0-4 scale; 5 days; MPA 0.05 mg/kg/day, Org 214007-0 0.5 mg/kg/day; n=2. The protocol:
The McPhail (or anti-McPhail) test was used to evaluate potential progestational (or anti-progestational) activity of Org 214007-0 on the endometrium in estrogen-primed immature rabbits after once-daily administration. The female NZW rabbits were housed in pairs in a light- and temperature-controlled room, fed daily with 40 - 50 g standard pelleted food and with free access to tap-water. Before treatment with compounds rabbits were primed daily in the morning with a subcutaneous dose of 2 μg estradiol benzoate for 8 days. […] Transverse sections were prepared, stained with haematoxylin-eosin and evaluated microscopically. Endometrial development was scored on a 0-4 scale as follows: score 0: no development of glands; score 1: start of development of glands; score 2: clear-cut development of glands with ducts beginning to branch; score 3: about 2/3 of stroma bearing glandual tissue; score 4: more than 2/3 of stroma bearing glandular tissue. A score of 2 or higher in both rabbits was evaluated as a positive resonse.
For both the agonistic and antagonistic test immature female NZW rabbits (n=2 per treatment group) were primed with estrogen. […] One day after the last treatment the uterus was dissected and endometrial development was scored on a 0-4 scale. […]

These results are taken from PMC3495945, “Org 214007-0: A Novel Non-Steroidal Selective Glucocorticoid Receptor Modulator with Full Anti-Inflammatory Properties and Improved Therapeutic Index” (PLoS ONE, 2012).

pEC50, pIC50, pKi: −log10 of the molar value. Some results are limits rather than exact numbers.

T1 sequence (Q92731 whole entry): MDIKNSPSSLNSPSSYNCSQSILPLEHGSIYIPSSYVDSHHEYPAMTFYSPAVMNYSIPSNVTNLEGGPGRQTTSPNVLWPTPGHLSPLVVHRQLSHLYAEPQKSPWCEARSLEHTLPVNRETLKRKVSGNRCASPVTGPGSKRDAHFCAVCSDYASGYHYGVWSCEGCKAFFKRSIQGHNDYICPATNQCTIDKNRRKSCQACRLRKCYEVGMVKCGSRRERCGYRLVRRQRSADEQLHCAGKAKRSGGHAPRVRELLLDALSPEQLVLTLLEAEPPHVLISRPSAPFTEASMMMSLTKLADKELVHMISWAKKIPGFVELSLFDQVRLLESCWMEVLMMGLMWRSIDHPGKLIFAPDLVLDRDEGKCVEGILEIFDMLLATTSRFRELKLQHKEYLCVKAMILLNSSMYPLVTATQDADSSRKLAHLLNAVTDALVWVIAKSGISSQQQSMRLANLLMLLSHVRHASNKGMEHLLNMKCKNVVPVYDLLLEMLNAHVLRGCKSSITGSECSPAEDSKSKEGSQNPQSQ

Regarding `Cc1nnsc1C(=O)N[C@H]1CCN2c3ccc(C#N)cc3[C@@H](C)c3ccccc3[C@@H]2C1` [Org 214007-0], the pEC50 in assay [1] (read-out: EC50 (agonist)) and in assay [3] (read-out: EC50 (agonist)) was < 7.00 throughout. Besides, the pIC50 is < 6.00 in assay [1] (read-out: IC50 (antagonist)) and 7.71 in assay [3] (mean (±SD), read-out: IC50 (antagonist)). Also, the “% agonist potency” value in assay [1] (relative to reference compound) was <0.01%; in assay [3] (relative to reference compound), <0.03%. Moreover, the “% antagonist potency” value in assay [1] (relative to reference compound) is <0.9%; in assay [3] (relative to reference compound, mean (±SD)), 0.46 (±0.2) %. In addition, the negative-log Ki (pKi) in assay [2] is 8.66. Also, in assay [3] (read-out: % efficacy (antagonist)), the Emax was > 87%. For the same compound, the “endometrial development score, antagonistic test” value in assay [4] is 3.31. In assay [5], the “endometrial development score, agonistic test” value is reported as 0.5.

As a reminder, the pEC50 is −log10 of the EC50, conventionally taken in molar units. A word on the pIC50: it is the IC50 on a negative log10 scale, so that one unit is a factor of ten. The pKi is the negative decadic logarithm of the Ki, by convention in mol/L.
